Experimental data published in patent publication US12605362B2, “Eletriptan hydrobromide for treatment of spinal cord injury and improvement of locomotor function” (TECHNOPHAGE, INVESTIGAÇÃO E DESENVOLVIMENTO EM …, priority 2020, dated 2026).
Counter-ions that a name gives are not always drawn.

Tests used:
[1] = system: mice with T9 contusion type of injury; assay: PDGFRβ / CD31 (PECAM-1) double immunohistochemistry, vasculature association; type: in vivo; details: sections 1000 μm from epicentre, 42 dpi, vs Vehicle
Method: A moderate-severe contusion-type of injury was performed on adult C57BL/6 female mice (10-12 weeks) with an Infinite Horizon Impactor (PSI)^30. All surgeries were performed under aseptic conditions. Briefly, under deep anesthesia with Ketamine and Xylazine (120 mg/kg and 16 mg/kg respectively, i.p.) mice received a dorsal laminectomy at the level of 9th thoracic vertebra (T9). After securing the lateral processes of the 8th thoracic vertebra (T8) and 10th thoracic vertebra (T10) with a stainless-steel impactor tip, a controlled force-defined impact at 75 kdyne was delivered to the exposed spinal cord^28,30. […] Weight was monitored daily until 15 days-post-injury (dpi) and then weekly for the duration of the study and a high caloric pellet (Supreme Mini-Treats™ S05478 and S05472) was provided as a dietary supplement since a 10% weight loss was typically observed in this SCI model upon injury. […]
(§1) For immunohistochemistry in sections, OCT was removed from the cryosections using PBS (30 minutes). […] For activated microglia quantification, sections were counterstained with DAPI. […]
To infer if increased levels of PDGFRβ^+ detected on the extremities of the lesion extents were associated with blood vessels we decided to performed a double immunohistochemistry using a pericyte marker PDGFRβ and an endothelial cell marker CD31 (PECAM-1) (FIG. 7). […]

[2] = system: mice with T9 contusion type of injury; assay: activated microglia quantification and morphology (P2Y12 / F4/80 immunohistochemistry); type: in vivo; details: 42 dpi; for number of P2Y12+ F4/80+ (activated microglia) cells: vs Vehicle
Method: A moderate-severe contusion-type of injury was performed on adult C57BL/6 female mice (10-12 weeks) with an Infinite Horizon Impactor (PSI)^30. All surgeries were performed under aseptic conditions. Briefly, under deep anesthesia with Ketamine and Xylazine (120 mg/kg and 16 mg/kg respectively, i.p.) mice received a dorsal laminectomy at the level of 9th thoracic vertebra (T9). After securing the lateral processes of the 8th thoracic vertebra (T8) and 10th thoracic vertebra (T10) with a stainless-steel impactor tip, a controlled force-defined impact at 75 kdyne was delivered to the exposed spinal cord^28,30. Then, muscle and skin were closed with 4.0 polyglycolic acid (PGA) absorbable sutures (Safil, G1048213). In this study, mice were excluded when the actual displacement value was outside the interval 500-700 μm or if the actual force after impact was >2SD 75 Kdyne. Immediately after injury, mice were injected subcutaneously with 0.5 ml of sterile saline and then daily for 5 days. During this experiment, mice underwent gentle bladder expression twice daily until they were voiding on their own. Weight was monitored daily until 15 days-post-injury (dpi) and then weekly for the duration of the study and a high caloric pellet (Supreme Mini-Treats™ S05478 and S05472) was provided as a dietary supplement since a 10% weight loss was typically observed in this SCI model upon injury. […]
as §1
To quantify the activated microglia one set of spinal cord sections were stained with anti-P2Y12 (a microglia specific marker) and anti-F4/80 (a pan macrophage marker) and counterstained with […] DAPI. Z-stack compositions were acquired in a motorized inverted widefield fluorescence microscope (Zeiss Cell Observer, Carl Zeiss MicroImaging) with 20× magnification. […]

[3] = target: 5-HT1D (Homo sapiens, UniProt P28221); details: serotonin receptor agonist; cited from earlier work
5-HT1D, sequence (P28221 whole entry, species assumed): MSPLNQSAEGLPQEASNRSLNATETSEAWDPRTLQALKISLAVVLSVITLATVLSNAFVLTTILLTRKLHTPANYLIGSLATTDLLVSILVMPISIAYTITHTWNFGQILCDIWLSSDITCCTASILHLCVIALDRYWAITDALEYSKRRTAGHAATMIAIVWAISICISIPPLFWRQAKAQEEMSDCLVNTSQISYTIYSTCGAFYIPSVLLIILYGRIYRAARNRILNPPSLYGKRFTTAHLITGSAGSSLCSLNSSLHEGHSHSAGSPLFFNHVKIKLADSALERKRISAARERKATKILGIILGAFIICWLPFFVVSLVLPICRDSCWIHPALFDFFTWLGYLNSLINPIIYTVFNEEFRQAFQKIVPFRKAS

In the case of `CN1CCC[C@@H]1Cc1c[nH]c2ccc(CCS(=O)(=O)c3ccccc3)cc12` [Eletriptan Hbr, Eletriptan Hydrobromide], the “increased expression of PDGFRβ associated with CD31+ endothelial cells” value [1] is reported as “reduced”, the “number of P2Y12+ F4/80+ (activated microglia) cells” value [2] is reported as “no statistically significant differences” and the “number of P2Y12+ F4/80+ (activated microglia) cells” value ([2]; at 400 μm rostrally and caudally to the epicentre) is reported as “consistently higher”. For the same compound, the “P2Y12+ microglia morphology” value ([2]; sections near or at the epicentre, feature not observed in Vehicle-treated mice) was “longer, ramified processes were also observed” and the affinity [3] was “high affinity”.
